≈ marks a conversion by molar mass, not a printed value.
Key:
[1] = tested on: MCF7; assay: Cytotoxicity against human MCF7 cells; assay type: functional; conditions: for EC50: Homo sapiens, MCF7, read-out: ED50 (the source's name)
[2] = tested on: HT-29; assay: Cytotoxicity against human HT-29 cells; assay type: functional; conditions: read-out: ED50 (the source's name)
[3] = tested on: A549; assay: Cytotoxicity against human A549 cells; assay type: functional; conditions: for EC50: Homo sapiens, A549, read-out: ED50 (the source's name)
[4] = Toxicity against brine shrimp; assay type: organism-based; conditions: artemia, in vivo; read-out: ED50 (the source's name)
[5] = tested on: MCF7; assay: Selectivity index, ratio of IC50 for human A549 cells to IC50 for human MCF7 cells; assay type: functional
[6] = tested on: MCF7; assay: Selectivity index, ratio of IC50 for human HT-29 cells to IC50 for human MCF7 cells; assay type: functional

In the case of CCCCCCCCCC[C@H](O)[C@H]1CC[C@H]([C@H]2CC[C@H]([C@H](O)CCCCCCCCCC[C@@H]3CC(CC(C)=O)C(=O)O3)O2)O1 (some centres undefined) [BULLATACINONE], the ED50 [1] is reported as <1 ×10⁻⁷ ug/ml, the EC50 [2] is reported as < 0.001 µg/mL and the ED50 [3] is reported as 1.44 ×10⁻⁴ ug/ml.
COc1cccc2c1C(=O)c1c(O)c3c(c(O)c1C2=O)C[C@@](O)(C(=O)CO)C[C@@H]3O[C@H]1C[C@H](N)[C@H](O)[C@H](C)O1 [DOXORUBICIN] showed an EC50 [1] of 0.029 µg/mL (≈ 0.0534 µM), an EC50 [2] of 0.0301 µg/mL (≈ 0.0554 µM) and an EC50 [3] of 0.00696 µg/mL (≈ 0.0128 µM).
In the case of CCCCCCCCCCCC[C@H](O)[C@@H]1CC[C@@H]([C@@H](O)CCCCCC(=O)CCCCC2CC(CC(C)=O)C(=O)O2)O1 (some centres undefined) [SQUAMONE], the LC50 [4] is reported as 2.1 µg/mL (≈ 3.53 µM) and the EC50 [2] is reported as 1.5 µg/mL (≈ 2.52 µM).
For CCCCCCCCCCCC[C@H](O)[C@@H]1CC[C@@H]([C@@H](O)CCCCCC(O)CCCCC2CC(CC(C)O)C(=O)O2)O1 (some centres undefined) [TETRAHYDROSQUAMONE], the LC50 [4] was 2.7 µg/mL (≈ 4.51 µM), the EC50 [1] was 0.00989 µg/mL (≈ 0.0165 µM) and the “Ratio ED50” value [5] was 100. The EC50 [2] was 0.298 µg/mL (≈ 0.498 µM), the “Ratio ED50” value [6] was 100 and the EC50 [3] was 0.141 µg/mL (≈ 0.235 µM).

Reference: ChEMBL document CHEMBL1151139, “Bullatacin, bullatacinone, and squamone, a new bioactive acetogenin, from the bark of Annona squamosa” (J Nat Prod, 1990)
